{"source": "patent US6521615B2", "about": "“Diagnosing an animal for pyrophosphate gout, osteoporosis, or osteoarthritis by assaying intracellular pyrophosphate content in peripheral blood cells” (The Regents of the University of California, priority 1998, dated 2003)", "system": "human peripheral blood lymphocytes (mononuclear cells)", "method": "Mononuclear Cell Isolation: For this purpose 5 ml of freshly drawn heparinized blood was layered on 3.0 ml of Histopaque in a 15 ml polypropylene centrifuge tube and centrifuged at room temperature for 20 minutes at 1,000 g. The mononuclear cell layer was then removed from the tube and transferred into a new 15-ml tube. Volume was brought to a total of 5 ml by addition of Hanks buffered salt solution lacking Mg and Ca (HBSS). This suspension of cells was again layered onto 3.0 ml of Histopaque and again centrifuged as before.\nResuspension of the centrifuged cells in 12-ml HBSS was repeated three times, each followed by 10 min centrifugation at a lower g of 250 g, 50 g, and 50 g to remove contaminating platelets which carry substantial PPi.\nAfter decanting the supernatant, the cell pellet was resuspended in 1.0 ml of HBSS for counting in a hemocytometer. After counting, the cell suspension was spun for 10 minutes in a microfuge at 14,000 rpm. After decanting and thoroughly removing the supernatant, 3.0 μl of 0.1 M sodium […] (an alkaline phosphatase inhibitor) were added and the cells were lysed by addition of 100 μl of 1% triton X-100 and vortexing. The lysate is then stored frozen at −20° C. until time of assay.\nPPi Assay: The assay of PPi in mononuclear cells in Tables 1 and 2 were done by the luminescent methods (Barshop, B A et al. Analyt Biochem (1991) 197:266-272). […] Each sample was assayed in duplicate and in the presence and absence of added pyrophosphate as a recovery test.\nVolunteer two was an adult volunteer who had just been scheduled by the same internist to start the same medication for their hypertension.", "note": "Entries after “also recorded” stand apart in the source; their conditions may differ. Read-outs that look alike come from different tables or passages of the source."}
{"smiles": "COc1ccc([C@@H]2Sc3ccccc3N(CCN(C)C)C(=O)[C@@H]2OC(C)=O)cc1", "note": "[diltiazem]", "values": [{"measurement": "effect on intracellular concentration of pyrophosphate (PPi)", "setting": "mononuclear cells of peripheral blood, result in words", "result": "lowers the intracellular concentration of pyrophosphate (PPi); also recorded: comparable lowering of mononuclear cells in one of two patients"}, {"measurement": "PPi", "setting": "subject one (chondrocalcinosis), diltiazem 60 mg/day taken for only one day, collection 03/13/91", "result": 241, "unit": "pmole/10^6 cells"}, {"measurement": "PPi", "setting": "subject one (chondrocalcinosis), diltiazem 60 mg/day, collection 05/16/91", "result": 128, "unit": "pmole/10^6 cells"}, {"measurement": "PPi", "setting": "subject three (chondrocalcinosis), diltiazem 60 mg/day, collection 09/11/91", "result": 343, "unit": "pmole/10^6 cells"}]}
